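Each compound was tested at five concentrations against cells in 96-well plates for 48 hours. GI50: concentration for 50% inhibition of growth. TGI marks complete inhibition of growth.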
Assays:
Test in all cases: NCI anticancer screen, dose series, 48 h
[1] = test system: 786-0 renal
[2] = test system: A498 renal
[3] = test system: A549 NSCLC
[4] = test system: ACHN renal
[5] = test system: BT-549 breast
[6] = test system: CAKI-1 renal
[7] = test system: CCRF-CEM leukemia
[8] = test system: COLO 205 colon
[9] = test system: DU-145 prostate
[10] = test system: EKVX NSCLC
[11] = test system: HCC-2998 colon
[12] = test system: HCT-116 colon
[13] = test system: HCT-15 colon
[14] = test system: HL-60(TB) leukemia
[15] = test system: HOP-62 NSCLC
[16] = test system: HOP-92 NSCLC
[17] = test system: HS 578T breast
[18] = test system: HT29 colon
[19] = test system: IGROV1 ovarian
[20] = test system: K-562 leukemia
[21] = test system: KM12 colon
[22] = test system: LOX IMVI melanoma
[23] = test system: M14 melanoma
[24] = test system: MALME-3M melanoma
[25] = test system: MCF7 breast
[26] = test system: MDA-MB-231 breast
[27] = test system: MDA-MB-435
[28] = test system: MOLT-4 leukemia
[29] = test system: NCI-H226 lung
[30] = test system: NCI-H23 lung
[31] = test system: NCI-H460 lung
[32] = test system: NCI-H522 lung
[33] = test system: NCI/ADR-RES ovarian
[34] = test system: OVCAR-3 ovarian
[35] = test system: OVCAR-4 ovarian
[36] = test system: OVCAR-5 ovarian
[37] = test system: OVCAR-8 ovarian
[38] = test system: PC-3 prostate
[39] = test system: RPMI-8226 leukemia
[40] = test system: RXF 393 renal
[41] = test system: SF-268 CNS
[42] = test system: SF-295 CNS
[43] = test system: SF-539 CNS
[44] = test system: SK-MEL-2 melanoma
[45] = test system: SK-MEL-5 melanoma
[46] = test system: SK-OV-3 ovarian
[47] = test system: SN12C renal
[48] = test system: SNB-19 CNS
[49] = test system: SNB-75 CNS
[50] = test system: SR leukemia
[51] = test system: SW-620 colon
[52] = test system: T-47D breast
[53] = test system: TK-10 renal
[54] = test system: U251 CNS
[55] = test system: UACC-257 melanoma
[56] = test system: UACC-62 melanoma
[57] = test system: UO-31 renal

Question: `NC1=Nc2cc(OCCCCN3Cc4ccccc4C3)c(OCC3CC3)cc2C12CCCC2` was tested. Which GI50 [1] did it give?
Answer: 1540 nM

Question: What about the TGI [1] of the same compound?
Answer: 3.03 µM

Question: What about the GI50 [2] of the same compound?
Answer: 951 nM

Question: What about the TGI [2] of the same compound?
Answer: 4.91 µM

Question: What about the GI50 [3] of the same compound?
Answer: 1990 nM

Question: And the TGI [3]?
Answer: 4.84 µM

Question: What about the GI50 [4] of the same compound?
Answer: 1710 nM

Question: And the TGI [4]?
Answer: 3.24 µM

Question: And the GI50 [5]?
Answer: 1570 nM

Question: And the TGI [5]?
Answer: 3.33 µM

Question: And the GI50 [6]?
Answer: 2100 nM

Question: And the TGI [6]?
Answer: 6.5 µM

Question: What about the GI50 [7] of the same compound?
Answer: 2480 nM

Question: What about the TGI [7] of the same compound?
Answer: 9.5 µM

Question: And the GI50 [8]?
Answer: 1450 nM

Question: What about the TGI [8] of the same compound?
Answer: 3.11 µM

Question: What about the GI50 [9] of the same compound?
Answer: 3.24 µM

Question: And the TGI [9]?
Answer: 11.4 µM

Question: What about the GI50 [10] of the same compound?
Answer: 2770 nM

Question: What about the TGI [10] of the same compound?
Answer: 14.5 µM

Question: And the GI50 [11]?
Answer: 1570 nM

Question: And the TGI [11]?
Answer: 3.07 µM

Question: What about the GI50 [12] of the same compound?
Answer: 1200 nM

Question: And the TGI [12]?
Answer: 2560 nM

Question: What about the GI50 [13] of the same compound?
Answer: 1480 nM

Question: What about the TGI [13] of the same compound?
Answer: 3.59 µM

Question: And the GI50 [14]?
Answer: 1730 nM

Question: What about the TGI [14] of the same compound?
Answer: 3.55 µM

Question: And the GI50 [15]?
Answer: 1630 nM

Question: And the TGI [15]?
Answer: 3.39 µM

Question: And the GI50 [16]?
Answer: 873 nM

Question: And the TGI [16]?
Answer: 2710 nM

Question: What about the GI50 [17] of the same compound?
Answer: 1490 nM

Question: And the TGI [17]?
Answer: 4.18 µM

Question: And the GI50 [18]?
Answer: 1260 nM

Question: And the TGI [18]?
Answer: 3.13 µM

Question: And the GI50 [19]?
Answer: 1420 nM

Question: And the TGI [19]?
Answer: 2980 nM

Question: And the GI50 [20]?
Answer: 398 nM

Question: And the TGI [20]?
Answer: 1730 nM

Question: And the GI50 [21]?
Answer: 1720 nM

Question: And the TGI [21]?
Answer: 3.39 µM

Question: What about the GI50 [22] of the same compound?
Answer: 1690 nM

Question: What about the TGI [22] of the same compound?
Answer: 3.09 µM

Question: What about the GI50 [23] of the same compound?
Answer: 1770 nM

Question: And the TGI [23]?
Answer: 3.51 µM

Question: And the GI50 [24]?
Answer: 1630 nM

Question: And the TGI [24]?
Answer: 3.12 µM

Question: What about the GI50 [25] of the same compound?
Answer: 1370 nM

Question: What about the TGI [25] of the same compound?
Answer: 2990 nM

Question: What about the GI50 [26] of the same compound?
Answer: 1550 nM

Question: What about the TGI [26] of the same compound?
Answer: 3.02 µM

Question: And the GI50 [27]?
Answer: 1590 nM

Question: What about the TGI [27] of the same compound?
Answer: 2990 nM

Question: And the GI50 [28]?
Answer: 1880 nM

Question: And the TGI [28]?
Answer: 5.04 µM

Question: What about the GI50 [29] of the same compound?
Answer: 1320 nM

Question: And the TGI [29]?
Answer: 3.48 µM

Question: What about the GI50 [30] of the same compound?
Answer: 2150 nM

Question: What about the TGI [30] of the same compound?
Answer: 5.36 µM

Question: And the GI50 [31]?
Answer: 1670 nM

Question: What about the TGI [31] of the same compound?
Answer: 3.21 µM

Question: And the GI50 [32]?
Answer: 1860 nM

Question: What about the TGI [32] of the same compound?
Answer: 3.84 µM

Question: What about the GI50 [33] of the same compound?
Answer: 1730 nM

Question: What about the TGI [33] of the same compound?
Answer: 3.41 µM

Question: What about the GI50 [34] of the same compound?
Answer: 1490 nM

Question: And the TGI [34]?
Answer: 3.16 µM

Question: What about the GI50 [35] of the same compound?
Answer: 3.11 µM

Question: What about the TGI [35] of the same compound?
Answer: 14.7 µM

Question: And the GI50 [36]?
Answer: 2300 nM

Question: What about the TGI [36] of the same compound?
Answer: 6.4 µM

Question: What about the GI50 [37] of the same compound?
Answer: 1800 nM

Question: What about the TGI [37] of the same compound?
Answer: 4.02 µM

Question: And the GI50 [38]?
Answer: 1690 nM

Question: And the TGI [38]?
Answer: 7.81 µM

Question: And the GI50 [39]?
Answer: 1530 nM

Question: What about the TGI [39] of the same compound?
Answer: 4.02 µM

Question: What about the GI50 [40] of the same compound?
Answer: 1220 nM

Question: And the TGI [40]?
Answer: 2600 nM

Question: And the GI50 [41]?
Answer: 1780 nM

Question: What about the TGI [41] of the same compound?
Answer: 6.42 µM

Question: And the GI50 [42]?
Answer: 1940 nM

Question: And the TGI [42]?
Answer: 3.83 µM

Question: What about the GI50 [43] of the same compound?
Answer: 1530 nM

Question: And the TGI [43]?
Answer: 2910 nM

Question: What about the GI50 [44] of the same compound?
Answer: 1840 nM

Question: What about the TGI [44] of the same compound?
Answer: 3.49 µM

Question: And the GI50 [45]?
Answer: 1710 nM

Question: What about the TGI [45] of the same compound?
Answer: 3.1 µM

Question: And the GI50 [46]?
Answer: 1890 nM

Question: And the TGI [46]?
Answer: 3.9 µM

Question: What about the GI50 [47] of the same compound?
Answer: 1700 nM

Question: What about the TGI [47] of the same compound?
Answer: 3.41 µM

Question: What about the GI50 [48] of the same compound?
Answer: 3.28 µM

Question: What about the TGI [48] of the same compound?
Answer: 12.4 µM

Question: What about the GI50 [49] of the same compound?
Answer: 1190 nM

Question: What about the TGI [49] of the same compound?
Answer: 2480 nM

Question: What about the GI50 [50] of the same compound?
Answer: 1610 nM

Question: What about the TGI [50] of the same compound?
Answer: 4.48 µM

Question: And the GI50 [51]?
Answer: 1700 nM

Question: And the TGI [51]?
Answer: 3.48 µM

Question: What about the GI50 [52] of the same compound?
Answer: 1780 nM

Question: What about the TGI [52] of the same compound?
Answer: 4.29 µM

Question: What about the GI50 [53] of the same compound?
Answer: 1750 nM

Question: And the TGI [53]?
Answer: 3.45 µM

Question: What about the GI50 [54] of the same compound?
Answer: 1530 nM

Question: And the TGI [54]?
Answer: 3.11 µM

Question: What about the GI50 [55] of the same compound?
Answer: 1620 nM

Question: And the TGI [55]?
Answer: 3.48 µM

Question: What about the GI50 [56] of the same compound?
Answer: 1690 nM

Question: What about the TGI [56] of the same compound?
Answer: 3.11 µM

Question: What about the GI50 [57] of the same compound?
Answer: 1460 nM

Question: And the TGI [57]?
Answer: 2880 nM
